These compounds were tested against Human CD38 (Homo sapiens (Human), UniProt P28907) (assay: CD38 enzyme assay). Conditions: 2 nM CD38, NAD+ substrate, absorbance at 405 nm.
Assay type: biochemical
Procedure, shortened: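 IC50 values come from fitting % inhibition against compound concentration with a 4-parameter logistic, or a 3-parameter fit with top/bottom fixed at 100/0 or Hill at 1. Inhibition is scaled between DMSO wells and positive-control wells treated with a quinolinone CD38 inhibitor.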

Chain of Human CD38 (P28907 whole entry): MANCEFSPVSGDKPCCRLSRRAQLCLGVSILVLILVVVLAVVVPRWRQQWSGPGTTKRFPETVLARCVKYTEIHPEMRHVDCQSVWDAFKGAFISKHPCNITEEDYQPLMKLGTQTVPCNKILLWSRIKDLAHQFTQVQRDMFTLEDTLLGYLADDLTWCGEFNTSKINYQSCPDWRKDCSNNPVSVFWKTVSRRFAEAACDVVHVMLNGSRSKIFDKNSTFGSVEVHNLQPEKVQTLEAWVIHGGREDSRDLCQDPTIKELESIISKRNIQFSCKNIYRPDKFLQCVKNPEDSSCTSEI

Q: For O=C(N[C@H]1CC[C@@H](O)CC1)c1nc(-n2ccnc2)nc2cc[nH]c12 [Example 186], which IC50 is on record?
A: The IC50 was 10 to 100 nM.

Q: Which IC50 does the source give for CN(CC(F)(F)F)[C@H]1CC[C@H](NC(=O)c2nc(-n3ccnc3)nc3cn[nH]c23)CC1 [Example 248, 5-(1H-imidazol-1-yl)-N-((1r,4r)-4-(methyl(2,2,2-trifluoroethyl)amino)cyclohexyl)-1H-pyrazolo[4,3-d]pyrimidine-7-carboxamide] here?
A: Its IC50 is 10 to 100 nM.

Q: CC(F)(F)CN[C@H]1CC[C@H](NC(=O)c2nc(-n3ccnc3)nc3ccsc23)CC1 [Example 246, N-((1r,4r)-4-((2,2-difluoropropyl)amino)cyclohexyl)-2-(1H-imidazol-1-yl)thieno[3,2-d]pyrimidine-4-carboxamide] was tested. Which IC50 did it give?
A: Its IC50 is 10 to 100 nM.

Q: For COCCO[C@H]1CC[C@H](NC(=O)c2nc(-n3ccnc3)cc3nc[nH]c23)CC1 [Example 26, 6-(1H-Imidazol-1-yl)-N-((1r,4r)-4-(2-methoxyethoxy)cyclohexyl)-3H-imidazo[4,5-c]pyridine-4-carboxamide], which IC50 is on record?
A: Its IC50 is 10 to 100 nM.

Q: With CN(C)CC#Cc1ccc(NC(=O)c2nc(-n3ccnc3)nc3cc[nH]c23)cn1 [Example 190, N-(6-(3-(dimethylamino)prop-1-yn-1-yl)pyridin-3-yl)-2-(1H-imidazol-1-yl)-5H-pyrrolo[3,2-d]pyrimidine-4-carboxamide] as the compound, how does the IC50 read?
A: Its IC50 is < 10 nM.

Q: With O=C(N[C@H]1CC[C@@H](NCC(F)(F)F)CC1)c1nc(-n2ccnc2)nc2cc[nH]c12 [Example 102, 2-(1H-imidazol-1-yl)-N-((1s,4s)-4-((2,2,2-trifluoroethyl)amino)cyclohexyl)-5H-pyrrolo[3,2-d]pyrimidine-4-carboxamide] as the compound, how does the IC50 read?
A: Its IC50 is 10 to 100 nM.

Q: How did the IC50 turn out when O=C(Nc1cncnc1)c1nc(-n2ccnc2)nc2cc[nH]c12 [Example 153] was run?
A: The IC50 was < 10 nM.

Q: For O=C(NCc1c(F)cccc1C(F)(F)F)c1cc(-n2ccnc2)nc2cc[nH]c12 [Example 44, N-(2-Fluoro-6-(trifluoromethyl)benzyl)-5-(1H-imidazol-1-yl)-1H-pyrrolo[3,2-b]pyridine-7-carboxamide], which IC50 is on record?
A: Its IC50 is 10 to 100 nM.

Q: With CC(C)(N[C@H]1CC[C@H](NC(=O)c2nc(-n3ccnc3)nc3cc[nH]c23)CC1)C(F)(F)F [Example 272, 2-(1H-imidazol-1-yl)-N-((1r,4r)-4-((1,1,1-trifluoro-2-methylpropan-2-yl)amino)cyclohexyl)-5H-pyrrolo[3,2-d]pyrimidine-4-carboxamide] as the compound, how does the IC50 read?
A: The IC50 was 10 to 100 nM.

Q: For C[C@]1(NCC(F)(F)F)CC[C@H](NC(=O)c2nc(-n3ccnc3)cc3cn[nH]c23)CC1 [Example 240, 5-(1H-imidazol-1-yl)-N-((1r,4r)-4-methyl-4-((2,2,2-trifluoroethyl)amino)cyclohexyl)-1H-pyrazolo[3,4-c]pyridine-7-carboxamide], which IC50 is on record?
A: The IC50 was 100 to 1000 nM.

Q: C[C@@H](O)CO[C@H]1CC[C@H](NC(=O)c2nc(-n3ccnc3)cc3cn[nH]c23)CC1 (single isomer, unassigned) [Example 208] was tested. Which IC50 did it give?
A: Its IC50 is 10 to 100 nM.

Q: How did the IC50 turn out when O=C(N[C@H]1CC[C@H](NCCC(F)(F)F)CC1)c1nc(-n2ccnc2)nc2ccsc12 [Example 222, 2-(1H-imidazol-1-yl)-N-((1r,4r)-4-((3,3,3-trifluoropropyl)amino)cyclohexyl)thieno[3,2-d]pyrimidine-4-carboxamide] was run?
A: The IC50 was 10 to 100 nM.

Q: How did the IC50 turn out when CC(F)(F)CN[C@H]1CC[C@H](NC(=O)c2nc(-n3ccnc3)nc3cc[nH]c23)CC1 [Example 235, N-((1r,4r)-4-((2,2-difluoropropyl)amino)cyclohexyl)-2-(1H-imidazol-1-yl)-5H-pyrrolo[3,2-d]pyrimidine-4-carboxamide] was run?
A: The IC50 was 10 to 100 nM.

Q: N#Cc1ccc(NC(=O)c2nc(-n3ccnc3)cc3cn[nH]c23)cc1 [Example 205, N-(4-cyanophenyl)-5-(1H-imidazol-1-yl)-1H-pyrazolo[3,4-c]pyridine-7-carboxamide] was tested. Which IC50 did it give?
A: Its IC50 is < 10 nM.

Q: O=C(NC1CCN(C(=O)CN2CCOCC2)CC1)c1nc(-n2ccnc2)nc2cc[nH]c12 [Example 143] was tested. Which IC50 did it give?
A: The IC50 was 10 to 100 nM.

Q: For COCCN[C@H]1CC[C@H](NC(=O)c2nc(-n3ccnc3)nc3cc[nH]c23)CC1 [Example 56, 2-(1H-Imidazol-1-yl)-N-((1r,4r)-4-((2-methoxyethyl)amino)cyclohexyl)-5H-pyrrolo[3,2-d]pyrimidine-4-carboxamide], which IC50 is on record?
A: The IC50 was 10 to 100 nM.

Q: With O=C(Nc1ccccc1)c1nc(-n2ccnc2)nc2cc[nH]c12 [Example 82, 2-(1H-Imidazol-1-yl)-N-phenyl-5H-pyrrolo[3,2-d]pyrimidine-4-carboxamide] as the compound, how does the IC50 read?
A: Its IC50 is < 10 nM.

Q: Which IC50 does the source give for O=C(Nc1ccnc(Cl)c1)c1nc(-n2ccnc2)nc2cc[nH]c12 [Example 140] here?
A: Its IC50 is < 10 nM.

Q: With O=C(N[C@H]1CC[C@@H](C(F)(F)F)CC1)c1nc(-n2ccnc2)nc2ccsc12 [Example 122, 2-(1H-imidazol-1-yl)-N-((1s,4s)-4-(trifluoromethyl)cyclohexyl)thieno[3,2-d]pyrimidine-4-carboxamide] as the compound, how does the IC50 read?
A: Its IC50 is < 10 nM.

Q: For O=C(N[C@H]1CC[C@H](N2CC(C(F)(F)F)C2)CC1)c1nc(-n2ccnc2)nc2cn[nH]c12 [Example 241, 5-(1H-imidazol-1-yl)-N-((1r,4r)-4-(3-(trifluoromethyl)azetidin-1-yl)cyclohexyl)-1H-pyrazolo[4,3-d]pyrimidine-7-carboxamide], which IC50 is on record?
A: Its IC50 is 10 to 100 nM.

Q: For CC(F)(F)CN[C@H]1CC[C@H](NC(=O)c2nc(-n3ccnc3)cc3cn[nH]c23)CC1 [Example 193, N-((1r,4r)-4-((2,2-difluoropropyl)amino)cyclohexyl)-5-(1H-imidazol-1-yl)-1H-pyrazolo[3,4-c]pyridine-7-carboxamide], which IC50 is on record?
A: The IC50 was 10 to 100 nM.

Q: O=C(N[C@H]1CC[C@H](CO)CC1)c1nc(-n2ccnc2)cc2cn[nH]c12 [Example 225, N-((1r,4r)-4-(hydroxymethyl)cyclohexyl)-5-(1H-imidazol-1-yl)-1H-pyrazolo[3,4-c]pyridine-7-carboxamide] was tested. Which IC50 did it give?
A: Its IC50 is < 10 nM.

Q: C[C@H](O)COC1CCC(NC(=O)c2nc(-n3ccnc3)nc3cc[nH]c23)CC1 (stereo partly drawn) [Example 125b, N-((1R,4r)-4-((S)-2-hydroxypropoxy)cyclohexyl)-2-(1H-imidazol-1-yl)-5H-pyrrolo[3,2-d]pyrimidine-4-carboxamide] was tested. Which IC50 did it give?
A: Its IC50 is 10 to 100 nM.

Q: For N#CCO[C@H]1CC[C@H](NC(=O)c2nc(-n3ccnc3)nc3cn[nH]c23)CC1 [Example 214, N-((1r,4r)-4-(cyanomethoxy)cyclohexyl)-5-(1H-imidazol-1-yl)-1H-pyrazolo[4,3-d]pyrimidine-7-carboxamide], which IC50 is on record?
A: Its IC50 is < 10 nM.

Q: For CC(C)(O)[C@H]1CC[C@H](NC(=O)c2nc(-n3ccnc3)cc3cn[nH]c23)CC1 [Example 109, N-((1r,4r)-4-(2-hydroxypropan-2-yl)cyclohexyl)-5-(1H-imidazol-1-yl)-1H-pyrazolo[3,4-c]pyridine-7-carboxamide], which IC50 is on record?
A: The IC50 was < 10 nM.

Q: How did the IC50 turn out when O=C(N[C@H]1CC[C@H](NCC(F)F)CC1)c1nc(-n2ccnc2)nc2ccsc12 [Example 221, N-((1r,4r)-4-(2,2-difluoroethylamino)cyclohexyl)-2-(1H-imidazol-1-yl)thieno[3,2-d]pyrimidine-4-carboxamide] was run?
A: The IC50 was 10 to 100 nM.

Q: Cc1nc2nc(-n3ccnc3)nc(C(=O)NC3CCC(F)(F)CC3)c2[nH]1 [Example 117, N-(4,4-difluorocyclohexyl)-2-(1H-imidazol-1-yl)-8-methyl-7H-purine-6-carboxamide] was tested. Which IC50 did it give?
A: The IC50 was 10 to 100 nM.

Q: O=C(N[C@H]1CC[C@H](NCC(F)F)CC1)c1nc(-n2ccnc2)nc2cc[nH]c12 [Example 105, N-((1r,4r)-4-((2,2-difluoroethyl)amino)cyclohexyl)-2-(1H-imidazol-1-yl)-5H-pyrrolo[3,2-d]pyrimidine-4-carboxamide] was tested. Which IC50 did it give?
A: The IC50 was 10 to 100 nM.

Q: For O=C(N[C@H]1CC[C@H](NCCC(F)(F)F)CC1)c1nc(-n2ccnc2)cc2cn[nH]c12 [Example 189, 5-(1H-imidazol-1-yl)-N-((1r,4r)-4-((3,3,3-trifluoropropyl)amino)cyclohexyl)-1H-pyrazolo[3,4-c]pyridine-7-carboxamide], which IC50 is on record?
A: The IC50 was 10 to 100 nM.

Q: With O=C(NCc1c(F)cccc1C(F)(F)F)c1nc(-n2ccnc2)cc2cn[nH]c12 [Example 48, N-(2-Fluoro-6-(trifluoromethyl)benzyl)-5-(1H-imidazol-1-yl)-1H-pyrazolo[3,4-c]pyridine-7-carboxamide] as the compound, how does the IC50 read?
A: The IC50 was 10 to 100 nM.

Q: With CNCCO[C@H]1CC[C@H](NC(=O)c2nc(-n3ccnc3)nc3cc[nH]c23)CC1 [Example 71, 2-(1H-Imidazol-1-yl)-N-((1r,4r)-4-(2-(methylamino)ethoxy)cyclohexyl)-5H-pyrrolo[3,2-d]pyrimidine-4-carboxamide] as the compound, how does the IC50 read?
A: Its IC50 is 10 to 100 nM.

Q: How did the IC50 turn out when COCCO[C@H]1CC[C@H](NC(=O)c2cc(-n3ccnc3)cc3cnsc23)CC1 [Example 41, 5-(1H-Imidazol-1-yl)-N-((1r,4r)-4-(2-methoxyethoxy)cyclohexyl)benzo[d]isothiazole-7-carboxamide] was run?
A: Its IC50 is 100 to 1000 nM.

Q: How did the IC50 turn out when C[C@@](O)(C(=O)N[C@H]1CC[C@H](NC(=O)c2nc(-n3ccnc3)nc3cc[nH]c23)CC1)C(F)(F)F (single isomer, unassigned) [Example 127a] was run?
A: Its IC50 is 10 to 100 nM.

Q: With O=C(Nc1ccc2c(c1)CNC2)c1nc(-n2ccnc2)nc2cc[nH]c12 [Example 211, 2-(1H-imidazol-1-yl)-N-(isoindolin-5-yl)-5H-pyrrolo[3,2-d]pyrimidine-4-carboxamide] as the compound, how does the IC50 read?
A: The IC50 was < 10 nM.

Q: With O=C(N[C@H]1CC[C@H](N2CC(F)(F)C2)CC1)c1nc(-n2ccnc2)cc2cn[nH]c12 [Example 227, N-((1r,4r)-4-(3,3-difluoroazetidin-1-yl)cyclohexyl)-5-(1H-imidazol-1-yl)-1H-pyrazolo[3,4-c]pyridine-7-carboxamide] as the compound, how does the IC50 read?
A: Its IC50 is 10 to 100 nM.

Q: O=C(NC1CCS(=O)(=O)CC1)c1nc(-n2ccnc2)nc2cc[nH]c12 [Example 61, N-(1,1-Dioxidotetrahydro-2H-thiopyran-4-yl)-2-(1H-imidazol-1-yl)-5H-pyrrolo[3,2-d]pyrimidine-4-carboxamide] was tested. Which IC50 did it give?
A: Its IC50 is 10 to 100 nM.

Q: For COCCO[C@@H]1CCC[C@H](NC(=O)c2nc(-n3ccnc3)nc3cc[nH]c23)C1 [Example 124b, 2-(1H-imidazol-1-yl)-N-((1S,3R)-3-(2-methoxyethoxy)cyclohexyl)-5H-pyrrolo[3,2-d]pyrimidine-4-carboxamide], which IC50 is on record?
A: Its IC50 is 10 to 100 nM.
